The test system of one data set is Leukemia P-388. The experiment in a line: Effects upon Leukemia P-388 (survival of CDF1 mice implanted with P-388 cells). Format: in vivo, mouse (CDF1). Conditions: abdominally once; for ILS(%) (Increased Life Span): 24 h after implantation, CDF1 mice, 33 days, ratio to untreated control survival; for ILS* (ratio of ILS % of test compound to ILS % of mitomycin C): relative to mitomycin C as control under the same conditions. The protocol:
P-388 ascites tumour was abdominally implanted into a mouse (DBA/2). 7 days after this, ascitic fluid was collected from the tumour-carrying mouse. The number of P-388 cells was counted to prepare a cell suspension containing 5×10^6 cells/ml using a sterilized physiological saline solution. 0.2 ml of the cell suspension containing 1×10^6cells was abdominally implanted into each mouse of CDF1 strain (body weight 20-25 g). […] The effect of the test compound was evaluated with reference to the ILS % (Increased Life Span) (the ratio of the average survival days of the test animals to the average survival days of the control group of untreated animals). The following Table 5 indicates ILS* (the ratio of ILS % obtained using each of the test compounds to the corresponding ILS % obtained using mitomycin C as control under the same conditions).

Data set [1] has as its system Staphylococcus aureus ATCC 6538P. Nature of the data set: Anti-bacterial activity, minimum inhibitory concentration by agar dilution method at pH 7.0 (SA). The format is cell-based. Conditions: ATCC6538P. The source says: (§1) In this table, the microorganisms are abbreviated as follows:
SA: Staphylococcus aureus ATCC 6538P
(In agar dilution, organisms are placed on agar that contains the substance at set levels.)

Data set [2] relates to Klebsiella pneumoniae ATCC 10031. The experiment in a line: Anti-bacterial activity, minimum inhibitory concentration by agar dilution method at pH 7.0 (KP). The format is cell-based. The settings on record: ATCC10031.
From the text: as §1
KP: Klebsiella pneumoniae ATCC 10031.

For data set [3], the system named is Streptococcus faecalis ATCC 10541. Nature of the data set: Anti-bacterial activity, minimum inhibitory concentration by agar dilution method at pH 7.0 (SF). The settings on record: Enterococcus faecalis, ATCC10541. The format is cell-based.
From the text: as §1
SF: Streptococcus faecalis ATCC 10541

Data set [4] can be described thus: Acute toxicity (LD50, Behrens-Koerber method). Conditions: mouse, in vivo, ip; ddy mice, abdominally administered once, 14 days observation. How it is done: From the death ratio of each test group of animals, acute toxicity (LD50) was calculated by the "Behrens-Koerber" method.
Data set [5] has as its system Proteus vulgaris ATCC 6897. Nature of the data set: Anti-bacterial activity, minimum inhibitory concentration by agar dilution method at pH 7.0 (PV). Conditions: ATCC6897. The format is cell-based.
From the text: as §1
PV: Proteus vulgaris ATCC 6897

The record followed here is US4880825A, “Mitomycin derivatives” (Kyowa Hakko Kogyo Kabushiki Kaisha, priority 1987, dated 1989).

The structures appear in SMILES notation. In brackets after ≈: the same amount, converted by molar mass.

For orientation: MIC means the lowest concentration found to suppress growth. A low value points to greater potency. Usually LD50 stands for the dose expected to kill half of the subjects tested. Read a high LD50 as lower toxicity. With `CO[C@@]12[C@H](COC(N)=O)C3=C(C(=O)C(C)(Cl)C4(OCCO4)C3=O)N1C[C@@H]1N[C@@H]12` (stereo partly shown) [Compound 8, 6-chloro-7-demethoxy-6,7-dihydro-7-ethylenedioxymitomycin A], in the data set on Leukemia P-388 (dose 1.56 mg/kg), the “ILS(%) (Increased Life Span)” value is recorded as greater than 164%. The “ILS* (ratio of ILS % of test compound to ILS % of mitomycin C)” value in the data set with Leukemia P-388 (dose 1.56 mg/kg) is greater than 0.93. The MIC in data set [1] came out at 0.039 µg/mL (≈ 0.0942 µM); in data set [2], 0.039 µg/mL (≈ 0.0942 µM); in data set [3] it was 1.3 µg/mL (≈ 3.14 µM); in data set [5], 1.3 µg/mL (≈ 3.14 µM). This molecule also returned a 50% lethal dose (LD50) at 336 h in data set [4] of 3.75 mg/kg.

With `CO[C@@]12[C@H](COC(N)=O)C3=C(C(=O)C(C)C4(OCCO4)C3=O)N1C[C@H]1[C@@H]2N1C` (stereo partly shown) [Compound 3, 7-demethoxy-6,7-dihydro-7-ethylenedioxymitomycin F], in the data set on Leukemia P-388 (dose 2.5 mg/kg), the “ILS(%) (Increased Life Span)” value is on record as 153%. In the data set on Leukemia P-388 (dose 2.5 mg/kg), the “ILS* (ratio of ILS % of test compound to ILS % of mitomycin C)” value turned out to be 0.77. Moreover, the minimum inhibitory concentration (MIC) is 0.31 µg/mL (≈ 0.788 µM) in data set [1], 0.31 µg/mL (≈ 0.788 µM) in data set [2], 0.31 µg/mL (≈ 0.788 µM) in data set [3] and 0.63 µg/mL (≈ 1.6 µM) in data set [5]. Further, the LD50 at 336 h in data set [4] came out at 4.5 mg/kg.

In the case of `CC1C(=O)C2=C(C(=O)C13OCCO3)[C@H](COC(N)=O)[C@@]1(O)[C@@H]3[C@H](CN21)N3C` (stereo partly shown) [Compound 2, 7-demethoxy-6,7-dihydro-7-ethylenedioxymitomycin B], the “ILS(%) (Increased Life Span)” value with Leukemia P-388 (dose 5 mg/kg) amounted to 173%. Moreover, the “ILS* (ratio of ILS % of test compound to ILS % of mitomycin C)” value in the data set on Leukemia P-388 (dose 5 mg/kg) turned out to be 1.06. The MIC in data set [1] turned out to be 2.5 µg/mL (≈ 6.59 µM); in data set [2] it was 1.3 µg/mL (≈ 3.43 µM); in data set [3], 2.6 µg/mL (≈ 6.85 µM); in data set [5], 0.63 µg/mL (≈ 1.66 µM). The molecule further returned a median lethal dose (LD50) at 336 h in data set [4] of 7.5 mg/kg.

Regarding `CO[C@@]12[C@H](COC(N)=O)C3=C(C(=O)C(C)(Br)C4(OCCO4)C3=O)N1C[C@H]1[C@@H]2N1C` (stereo partly shown) [Compound 10, 6-bromo-7-demethoxy-6,7-dihydro-7-ethylenedioxymitomycin F], the minimal inhibitory concentration (MIC) was found to be 0.63 µg/mL (≈ 1.33 µM) in data set [1], 5 µg/mL (≈ 10.6 µM) in data set [2], 2.5 µg/mL (≈ 5.29 µM) in data set [3] and 5 µg/mL (≈ 10.6 µM) in data set [5].

In the case of `CN1[C@H]2[C@@H]1CN1C3=C(C(=O)C4(OCCO4)C(C)(Cl)C3=O)[C@H](COC(N)=O)[C@@]21O` (stereo partly shown) [Compound 9, 6-chloro-7-demethoxy-6,7-dihydro-7-ethylenedioxymitomycin B], the “ILS(%) (Increased Life Span)” value in the data set on Leukemia P-388 (dose 12.5 mg/kg) is on record as 159%. Besides, the “ILS* (ratio of ILS % of test compound to ILS % of mitomycin C)” value in the data set on Leukemia P-388 (dose 12.5 mg/kg) is 1.13. In addition, the MIC in data set [1] was greater than 40 µg/mL; in data set [2], 5 µg/mL (≈ 12.1 µM); in data set [3], 10 µg/mL (≈ 24.2 µM); in data set [5] it was greater than 40 µg/mL. This molecule gave an LD50 at 336 h in data set [4] of 15 mg/kg.

For `CO[C@]12[C@@H]3[C@H](CN1C1=C(C(=O)C4(OCCO4)C(C)C1=O)[C@@H]2COC(N)=O)N3C` (stereo partly shown) [Compound 4, 7-demethoxy-6,7-dihydro-7-ethylenedioxymitomycin J], the “ILS(%) (Increased Life Span)” value in the data set with Leukemia P-388 (dose 5 mg/kg) is 180%. The “ILS* (ratio of ILS % of test compound to ILS % of mitomycin C)” value with Leukemia P-388 (dose 5 mg/kg) was 1.16. In addition, the minimum inhibitory concentration (MIC) in data set [1] is 0.63 µg/mL (≈ 1.6 µM); in data set [2], 0.31 µg/mL (≈ 0.788 µM); in data set [3] it was 0.31 µg/mL (≈ 0.788 µM); in data set [5] it was 0.63 µg/mL (≈ 1.6 µM). This molecule also gave a median lethal dose (LD50) at 336 h in data set [4] of 6 mg/kg.

With `CO[C@@]12[C@H](COC(N)=O)C3=C(C(=O)C(C)C4(OCCO4)C3=O)N1C[C@@H]1N[C@@H]12` (stereo partly shown) [Compound 1, 7-demethoxy-6,7-dihydro-7-ethylenedioxymitomycin A], the “ILS(%) (Increased Life Span)” value in the data set on Leukemia P-388 (dose 0.39 mg/kg) is 169%. Also, the “ILS* (ratio of ILS % of test compound to ILS % of mitomycin C)” value in the data set on Leukemia P-388 (dose 0.39 mg/kg) worked out at 1.00. Moreover, the MIC was determined as 0.039 µg/mL (≈ 0.103 µM) in data set [1], 0.0049 µg/mL (≈ 0.0129 µM) in data set [2], 0.078 µg/mL (≈ 0.206 µM) in data set [3] and 0.0098 µg/mL (≈ 0.0258 µM) in data set [5]. Also, the median lethal dose (LD50) at 336 h in data set [4] stood at 0.7 mg/kg.
